Reference: patent publication EP2496579B1 (priority 2009, dated 2011)

Legend:
[1] = relative to morphine; background statement; cited from earlier work
[2] = target: human α4β2 neuronal nicotinic receptor (Homo sapiens, UniProt P17787+P43681); experiment: Neuronal nicotinic receptor (α-BGTX-insensitive) (agonist radioligand) binding assay; conditions: test compound at 1 µmole; 0.6 nM [3H]cytisine; transfected SH-SY5Y cells; inhibition of control radioligand specific binding; one single experiment; read-out: % inhibition, N neuronal alpha-BGTX-insensitive (alpha4beta 2) (agonist radioligand)
Description: (§1) Four illustrative compounds of this invention have each been tested at a concentration of 1 µmole in a series of 6 binding assays for various […], including dopaminic receptors, neuronal nicotinic receptors and muscular nicotinic receptors. Details of each binding assay procedure are given below.
Neuronal nicotinic receptor (α-BGTX-insensitive) (agonists radioligand):
The purpose is to evaluate the affinity of compounds for the human α4β2 neuronal nicotinic receptor expressed in transfected SH-SY5Y cells, determined in a radioligand binding assay according to Gopalakrishnan et al in J. Pharmacol. Exp. Ther. (1996) 276:289. The experimental protocol is as follows. Cell membrane homogenates (30 µg protein) are incubated for 120 min at 4°C with 0.6 nM [^3H]cytisine in the absence or presence of the test compound in a buffer containing 50 mM Tris-HCl (pH 7.4), 120 mM NaCl, 5 mM KCI, 2.5 mM CaCl2 and 1 mM MgCl2. Nonspecific binding is determined in the presence of 10 µM nicotine bitartrate. Following incubation, the samples are filtered rapidly under vacuum through glass fiber filters (GF/B, Packard) presoaked with 0.3% PEI and rinsed several times with ice-cold 50 mM Tris-HCl using a 96-sample cell harvester (Unifilter, Packard). The filters are dried then counted for radioactivity in a scintillation counter (Topcount, Packard) using a scintillation cocktail (Microscint 0, Packard). The results are expressed as a percent inhibition of the control radioligand specific binding. The standard reference compound is nicotine bitartrate, which is tested in each experiment at several concentrations to obtain a competition curve from which its IC50 is calculated, and from which the % inhibition at 1 µM as indicated in the following table is obtained.

[3] = target: T1, Human dopamine D5 receptor (Homo sapiens, UniProt P21918); experiment: Human dopamine D5 receptor (antagonist radioligand) binding assay; conditions: test compound at 1 µmole; 0.3 nM [3H]SCH 23390; transfected GH4 cells; inhibition of control radioligand specific binding; one single experiment
T1 construct: expressed in transfected cells; host or cells: GH4 cells (membrane homogenates)
Description: as §1
Human dopamine D5 receptor (antagonist radioligand):
The purpose is to evaluate the affinity of compounds for the human dopamine […] in transfected GH4 cells determined in a radioligand binding assay according to Sunahara et al in Nature (1991) 350:614. The experimental protocol is as follows. Cell membrane homogenates (20 µg protein) are incubated for 60 minutes at 22°C with 0.3 nM [^3H]SCH 23390 in the absence or presence of the test compound in a buffer containing 50 mM Tris-HCl (pH 7.4), 120 mM NaCl, 5 mM KCI, 5 mM MgCl2 and 1 mM EDTA. Nonspecific binding is determined in the presence of 10 µM SCH 23390. […] The filters are dried then counted for radioactivity in a scintillation counter (Topcount, Packard) using a scintillation cocktail (Microscint 0, Packard). The results are expressed as a percent inhibition of the control radioligand specific binding. […]

[4] = target: T2, human dopamine D1 receptor (Homo sapiens, UniProt P21728); experiment: Human dopamine D1 receptor (antagonist radioligand) binding assay; conditions: test compound at 1 µmole; 0.3 nM [3H]SCH 23390; transfected CHO cells; inhibition of control radioligand specific binding; one single experiment
T2 construct: expressed in transfected cells; host or cells: CHO cells (membrane homogenates)
Description: as §1
Human dopamine D1 receptor (antagonist radioligand):
The purpose is to evaluate the affinity of compounds for the human dopamine D1 receptor in transfected CHO cells determined in a radioligand binding assay according to Zhou et al in Nature (1990) 347:76. The experimental protocol is as follows. Cell membrane homogenates (48 µg protein) are incubated for 60 minutes at 22°C with 0.3 nM [^3H]SCH 23390 in the absence or presence of the test compound in a buffer containing 50 mM Tris-HCl (pH 7.4), 5 mM KCI, 5 mM MgCl2, 1.5 mM CaCl2 and 5 mM EDTA. Non-specific binding is determined in the presence of 1 µM SCH 23390. […] The filters are dried then counted for radioactivity in a scintillation counter (Topcount, Packard) using a scintillation cocktail (Microscint 0, Packard). The results are expressed as a percent inhibition of the control radioligand specific binding. […]

[5] = target: human α7 neuronal nicotinic receptor (Homo sapiens, UniProt P36544); experiment: biochemical; type: binding; conditions: read-out: % inhibition, N neuronal alpha -BGTX-sensitive (alpha 7) (antagonist radioligand)
[6] = target: T3, agonist site of the human dopamine D5 receptor (Homo sapiens, UniProt P21918); experiment: Human dopamine D5 receptor (agonist radioligand) binding assay; conditions: test compound at 1 µmole; 7.5 nM [3H]dopamine; transfected GH4 cells; inhibition of control radioligand specific binding; one single experiment
T3 construct: expressed in transfected cells; host or cells: GH4 cells (membrane homogenates)
Description: as §1
Human dopamine D5 receptor (agonist radioligand):
The purpose is to evaluate the affinity of compounds for the agonist site of the human dopamine D5 receptor in transfected GH4 cells determined in a radioligand binding assay according to Sunahara et al in Nature (1991) 350:614. The experimental protocol is as follows. Cell membrane homogenates (120 µg protein) are incubated for 60 minutes at 22°C with 7.5 nM [^3H]dopamine in the absence or presence of the test compound in a buffer containing 20 mM Tris-HCl (pH 7.4), 5 mM MgCl2, 0.8 mM DTT, 0.3 mM ascorbic acid and 0.1 mM pyrocatechol. Nonspecific binding is determined in the presence of 10 µM SCH 23390. Following incubation, the samples are filtered rapidly under vacuum through glass fiber filters (GF/B, Packard) 55re-soaked with 0.3% PEI and rinsed several times with ice-cold 50 mM Tris-HCl using a 96-sample cell harvester (Unifilter, Packard). The filters are dried then counted for radioactivity in a scintillation counter (Topcount, Packard) using a scintillation cocktail (Microscint 0, Packard). The results are expressed as a percent inhibition of the control radioligand specific binding. The standard reference compound is dopamine, which is tested in each experiment at several concentrations to obtain a competition curve from which its IC50 is calculated, and from which the % inhibition at 1 µM as indicated in the following table is obtained.

[7] = target: human muscle-type nicotinic receptor (Homo sapiens, UniProt P02708+P07510+Q07001); experiment: biochemical; type: binding; conditions: read-out: % inhibition, N muscle-type (h) (antagonist radioligand)
Chain of human muscle-type nicotinic receptor (P02708 21-457): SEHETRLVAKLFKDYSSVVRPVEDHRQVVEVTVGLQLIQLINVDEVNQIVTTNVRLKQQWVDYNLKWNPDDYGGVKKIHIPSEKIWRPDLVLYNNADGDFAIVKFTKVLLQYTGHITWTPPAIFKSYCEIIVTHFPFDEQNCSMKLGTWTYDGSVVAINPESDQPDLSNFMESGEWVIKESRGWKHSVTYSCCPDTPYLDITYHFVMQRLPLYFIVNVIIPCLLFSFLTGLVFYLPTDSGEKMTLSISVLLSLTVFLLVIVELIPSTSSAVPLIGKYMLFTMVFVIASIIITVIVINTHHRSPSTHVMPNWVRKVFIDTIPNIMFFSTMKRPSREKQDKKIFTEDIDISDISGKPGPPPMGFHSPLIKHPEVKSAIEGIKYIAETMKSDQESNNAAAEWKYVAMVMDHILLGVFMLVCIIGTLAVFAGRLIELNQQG
Chain of human muscle-type nicotinic receptor (P07510 23-517): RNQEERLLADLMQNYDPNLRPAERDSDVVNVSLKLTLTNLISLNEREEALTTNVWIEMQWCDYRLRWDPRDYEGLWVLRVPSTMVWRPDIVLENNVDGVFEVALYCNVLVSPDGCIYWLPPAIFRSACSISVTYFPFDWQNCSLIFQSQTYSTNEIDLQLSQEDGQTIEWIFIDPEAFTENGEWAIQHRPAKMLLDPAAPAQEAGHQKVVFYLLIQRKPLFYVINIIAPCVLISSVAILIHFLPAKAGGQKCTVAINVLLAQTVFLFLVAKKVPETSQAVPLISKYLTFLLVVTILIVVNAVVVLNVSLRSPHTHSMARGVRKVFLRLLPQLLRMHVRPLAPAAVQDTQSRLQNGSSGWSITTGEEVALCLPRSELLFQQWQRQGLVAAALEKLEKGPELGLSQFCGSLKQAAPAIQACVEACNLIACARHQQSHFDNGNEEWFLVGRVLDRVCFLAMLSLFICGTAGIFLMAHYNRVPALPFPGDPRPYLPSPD
Chain of human muscle-type nicotinic receptor (P11230 24-501, further chain): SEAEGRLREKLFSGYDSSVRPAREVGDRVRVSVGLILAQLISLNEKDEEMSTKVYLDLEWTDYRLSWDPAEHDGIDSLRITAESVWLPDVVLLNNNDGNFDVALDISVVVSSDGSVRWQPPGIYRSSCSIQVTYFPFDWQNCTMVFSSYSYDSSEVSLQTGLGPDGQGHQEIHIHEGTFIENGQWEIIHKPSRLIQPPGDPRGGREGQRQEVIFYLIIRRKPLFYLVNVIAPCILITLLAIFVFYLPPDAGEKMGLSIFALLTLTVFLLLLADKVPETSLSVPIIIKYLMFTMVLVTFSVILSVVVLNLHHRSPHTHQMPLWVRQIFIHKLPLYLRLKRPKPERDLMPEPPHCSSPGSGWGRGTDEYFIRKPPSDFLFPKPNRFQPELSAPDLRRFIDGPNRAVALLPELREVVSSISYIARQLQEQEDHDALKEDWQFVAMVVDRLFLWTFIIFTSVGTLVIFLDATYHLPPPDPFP
Chain of human muscle-type nicotinic receptor (Q07001 22-517): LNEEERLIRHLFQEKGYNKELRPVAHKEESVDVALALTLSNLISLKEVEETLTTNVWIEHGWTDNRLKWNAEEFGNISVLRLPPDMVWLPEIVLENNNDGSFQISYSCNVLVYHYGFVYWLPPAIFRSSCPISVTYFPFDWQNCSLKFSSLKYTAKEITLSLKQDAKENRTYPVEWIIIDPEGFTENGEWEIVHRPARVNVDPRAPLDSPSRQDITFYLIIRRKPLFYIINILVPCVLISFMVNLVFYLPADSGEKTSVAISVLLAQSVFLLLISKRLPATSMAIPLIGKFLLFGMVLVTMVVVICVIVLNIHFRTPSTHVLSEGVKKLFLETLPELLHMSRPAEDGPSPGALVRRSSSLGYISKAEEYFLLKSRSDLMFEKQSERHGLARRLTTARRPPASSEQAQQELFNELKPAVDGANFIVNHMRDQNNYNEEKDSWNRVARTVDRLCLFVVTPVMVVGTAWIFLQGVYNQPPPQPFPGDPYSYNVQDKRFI

T3 sequence (P21918 whole entry): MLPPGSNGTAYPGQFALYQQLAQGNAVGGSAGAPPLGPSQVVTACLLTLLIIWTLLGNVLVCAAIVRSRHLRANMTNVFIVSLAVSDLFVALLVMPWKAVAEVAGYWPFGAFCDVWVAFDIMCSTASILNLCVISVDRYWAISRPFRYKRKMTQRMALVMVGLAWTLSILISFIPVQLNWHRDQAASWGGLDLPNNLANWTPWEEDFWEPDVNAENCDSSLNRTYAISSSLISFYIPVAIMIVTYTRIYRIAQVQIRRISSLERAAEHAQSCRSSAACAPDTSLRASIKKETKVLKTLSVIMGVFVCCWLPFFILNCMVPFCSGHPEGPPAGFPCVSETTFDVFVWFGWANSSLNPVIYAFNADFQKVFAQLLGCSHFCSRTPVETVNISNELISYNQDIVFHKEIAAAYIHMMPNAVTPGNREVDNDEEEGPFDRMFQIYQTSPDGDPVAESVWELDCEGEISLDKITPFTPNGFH
Chain of human α4β2 neuronal nicotinic receptor (P43681 29-627 limits assumed): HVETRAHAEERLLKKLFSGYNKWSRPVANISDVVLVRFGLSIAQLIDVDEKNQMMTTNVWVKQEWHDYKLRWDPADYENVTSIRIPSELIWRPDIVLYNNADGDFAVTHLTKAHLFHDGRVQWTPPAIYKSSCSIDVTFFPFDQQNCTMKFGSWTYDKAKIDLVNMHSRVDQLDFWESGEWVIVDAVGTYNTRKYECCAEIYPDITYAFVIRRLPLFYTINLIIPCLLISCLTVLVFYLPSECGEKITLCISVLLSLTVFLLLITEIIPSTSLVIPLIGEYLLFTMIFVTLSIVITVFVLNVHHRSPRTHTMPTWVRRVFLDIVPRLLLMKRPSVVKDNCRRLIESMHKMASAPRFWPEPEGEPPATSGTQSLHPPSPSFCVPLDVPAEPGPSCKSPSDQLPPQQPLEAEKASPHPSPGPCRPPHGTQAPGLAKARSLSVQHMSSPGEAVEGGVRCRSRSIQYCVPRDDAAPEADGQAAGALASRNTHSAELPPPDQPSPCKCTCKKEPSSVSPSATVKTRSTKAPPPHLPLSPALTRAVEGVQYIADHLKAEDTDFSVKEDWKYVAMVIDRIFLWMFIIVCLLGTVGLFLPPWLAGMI
Chain of human α4β2 neuronal nicotinic receptor (P17787 26-502): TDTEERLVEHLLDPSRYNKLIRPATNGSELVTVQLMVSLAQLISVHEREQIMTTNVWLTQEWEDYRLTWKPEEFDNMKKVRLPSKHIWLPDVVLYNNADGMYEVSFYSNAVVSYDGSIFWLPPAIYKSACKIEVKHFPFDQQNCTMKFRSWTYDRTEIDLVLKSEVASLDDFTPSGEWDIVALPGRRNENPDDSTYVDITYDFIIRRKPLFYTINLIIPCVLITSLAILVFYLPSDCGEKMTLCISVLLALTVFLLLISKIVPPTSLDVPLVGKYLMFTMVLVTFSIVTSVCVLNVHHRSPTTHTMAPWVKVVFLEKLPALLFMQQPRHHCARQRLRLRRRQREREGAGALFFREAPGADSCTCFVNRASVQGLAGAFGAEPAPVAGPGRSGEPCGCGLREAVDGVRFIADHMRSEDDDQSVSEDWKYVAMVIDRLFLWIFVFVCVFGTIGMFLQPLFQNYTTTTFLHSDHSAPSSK
Chain of human α7 neuronal nicotinic receptor (P36544 23-502): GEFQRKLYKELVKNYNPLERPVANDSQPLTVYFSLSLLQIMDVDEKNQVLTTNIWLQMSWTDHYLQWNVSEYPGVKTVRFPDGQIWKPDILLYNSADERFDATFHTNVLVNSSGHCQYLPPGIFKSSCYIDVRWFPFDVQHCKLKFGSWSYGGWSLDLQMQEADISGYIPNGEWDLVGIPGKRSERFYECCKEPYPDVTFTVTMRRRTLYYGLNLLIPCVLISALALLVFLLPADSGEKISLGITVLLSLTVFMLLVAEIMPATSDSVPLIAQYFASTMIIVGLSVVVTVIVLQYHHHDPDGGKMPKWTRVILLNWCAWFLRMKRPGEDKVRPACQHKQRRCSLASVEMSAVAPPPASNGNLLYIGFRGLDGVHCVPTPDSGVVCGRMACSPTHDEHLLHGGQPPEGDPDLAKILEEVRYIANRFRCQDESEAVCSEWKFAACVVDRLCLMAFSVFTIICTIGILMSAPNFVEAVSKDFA
T2 sequence (P21728 whole entry): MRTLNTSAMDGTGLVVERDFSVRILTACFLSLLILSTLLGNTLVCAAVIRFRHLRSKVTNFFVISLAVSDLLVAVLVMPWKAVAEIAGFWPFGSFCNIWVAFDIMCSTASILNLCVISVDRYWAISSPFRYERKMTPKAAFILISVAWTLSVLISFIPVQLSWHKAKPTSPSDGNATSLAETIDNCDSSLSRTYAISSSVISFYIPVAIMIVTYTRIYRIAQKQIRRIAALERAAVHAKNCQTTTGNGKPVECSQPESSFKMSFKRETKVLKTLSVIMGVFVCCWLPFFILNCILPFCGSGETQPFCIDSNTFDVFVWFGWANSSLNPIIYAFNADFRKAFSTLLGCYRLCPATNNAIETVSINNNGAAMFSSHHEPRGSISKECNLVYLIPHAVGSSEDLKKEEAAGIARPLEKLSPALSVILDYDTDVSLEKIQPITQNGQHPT
T1 sequence (P21918 whole entry): as the sequence (P21918 whole entry) above

Structure (SMILES)	analgesic potency, higher than that of morphine [1]	inhibition at 1 µM [2]	inhibition at 1 µM [3]	inhibition at 1 µM [4]	inhibition at 50 pM [5]	inhibition at 1 µM [6]	inhibition at 0.0005 µM [7]
Clc1ccc(C2CC3CCC2N3)cn1 (stereo not drawn) [epibatidine]	about 200 fold	–	–	–	–	–	–
NCC12CC(CCN1Cc1ccccn1)C2 [Comp.20]	–	11%	31%	-3%	12%	6%	32%
CCN1CCC2CC1(C(O)c1cccnc1)C2 (stereo not drawn) [Comp.19a]	–	24%	–	9%	3%	-2%	33%
CCN1CCC2CC1(C(=O)c1ccc(Cl)nc1)C2 [Comp.9m]	–	4%	–	–	-1%	-13%	-8%
OC(c1cccnc1)C12CC(CCN1)C2 (stereo not drawn) [Comp.11]	–	–	–	–	-1%	–	17%
